Legend:
Format in all cases: biochemical
fungal tyrosinase = assay: Inhibition of fungal tyrosinase activity (L-DOPA substrate); settings: standard at 100 µL/mL
Protocol: The tyrosinase (EC 1.14.18.1, 25 KU, fungal tyrosinase, Sigma-Aldrich) inhibitory effect was measured using L-3,4-dihydroxyphenylalanine (L-DOPA, Supelco) as a substrate. To perform it, various concentrations of the studied extract (20 µL), tyrosinase solution (200 U/mL, 40 µL) and phosphate buffer (100 µL, 50 mM, pH 6.5) were applied to a 96-well plate, and then incubated for 15 minutes at 25°C. The reaction was started with the addition of L-DOPA (40 µL) and incubated for a further 15 minutes, after which the absorbance was measured at wavelength of λ=475 nm compared to the control without the inhibitor. In the control sample, representing 100% of enzyme activity, phosphate buffer was added instead of the extract. Tyrosinase inhibitory activity was determined by comparing the enzyme activity in samples with and without the assessed inhibitor. Kojic acid (Supelco) at a concentration of 100 µL/mL was used as a standard.

[1] = test system: collagenase from Clostridium haemolyticum; assay: Inhibition of collagenase activity (FALGPA substrate); settings: 100 µg/mL (extract in glycerol; EGCG standard at 100 µg/mL)
Protocol: The enzymatic method for the determination of collagenase (EC 3.4.24.3) using FALGPA (N-(3-[2-furyl]acryloyl)-Leu-Gly-Pro-Ala) as substrate for collagenase, which was dissolved in 50 mM Tricine buffer (pH 7.5) at an initial concentration of 0.8 U/mL, was used for the study. FALGPA was dissolved in Tricine buffer to 2 mM. Various concentrations were prepared from the lyophilised extract of Example 1 by dissolving in glycerol and incubating with the enzyme for 15 minutes before adding the substrate to start the reaction. The final reaction mixture (150 µL) contained Tricine buffer, 0.8 mM of FALGPA, 0.1 U of collagenase and the extract at appropriate concentration. Epigallocatechin gallate (EGCG; Supelco) at the concentration of 100 µg/mL was used as a standard. The absorbance at wavelength of λ=345 nm was measured immediately after substrate addition and then continuously for 20 minutes.

[2] = biological target: T1, porcine pancreatic elastase (Sus scrofa, UniProt P00772); assay: Inhibition of elastase activity (AAAPVN substrate); settings: 100 µg/mL (extract in glycerol; EGCG standard at 100 µg/mL)
T1 construct: purchased Sigma-Aldrich
T1 sequence (P00772 27-266): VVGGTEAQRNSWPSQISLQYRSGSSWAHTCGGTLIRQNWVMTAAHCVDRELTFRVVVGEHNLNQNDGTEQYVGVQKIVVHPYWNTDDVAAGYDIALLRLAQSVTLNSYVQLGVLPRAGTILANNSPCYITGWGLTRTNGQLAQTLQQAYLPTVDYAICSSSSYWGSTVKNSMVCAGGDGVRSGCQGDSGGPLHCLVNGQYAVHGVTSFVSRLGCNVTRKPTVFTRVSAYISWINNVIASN
Protocol: The method using porcine pancreatic elastase (PE - E.C.3.4.21.36; Sigma-Aldrich) was used for the study, which was dissolved in distilled water to prepare a stock solution with a concentration of 3.33 mg/mL. The substrate […] (AAAPVN; Sigma-Aldrich) was dissolved in 1.6 mM Tris-HCl buffer (pH 8.0). The extract of Example 1 dissolved in glycerol (concentrations of 5-100 µg/mL) was incubated with the enzyme for 15 minutes before adding the substrate to start the reaction. The final reaction mixture in the well of the 96-well plate (total volume 200 µL) contained buffer, 0.8 mM of AAAPVN, 1 µg/mL of elastase and 25 µL of extract at the appropriate concentration. Epigallocatechin gallate (EGCG; Supelco) at the concentration of 100 µg/mL was used as a standard. Negative controls were performed using water. Absorbance values were measured immediately after substrate addition and then after 20 minutes at wavelength of λ=410 nm.

soybean lipoxygenase = biological target: T2, soybean lipoxygenase (Glycine max, UniProt P08170); assay: Anti-inflammatory properties, lipoxygenase inhibition; settings: positive control, concentration not given
T2 construct: purchased Sigma-Aldrich Chemie GmbH, Steinheim, Germany
T2 sequence (P08170 1-839): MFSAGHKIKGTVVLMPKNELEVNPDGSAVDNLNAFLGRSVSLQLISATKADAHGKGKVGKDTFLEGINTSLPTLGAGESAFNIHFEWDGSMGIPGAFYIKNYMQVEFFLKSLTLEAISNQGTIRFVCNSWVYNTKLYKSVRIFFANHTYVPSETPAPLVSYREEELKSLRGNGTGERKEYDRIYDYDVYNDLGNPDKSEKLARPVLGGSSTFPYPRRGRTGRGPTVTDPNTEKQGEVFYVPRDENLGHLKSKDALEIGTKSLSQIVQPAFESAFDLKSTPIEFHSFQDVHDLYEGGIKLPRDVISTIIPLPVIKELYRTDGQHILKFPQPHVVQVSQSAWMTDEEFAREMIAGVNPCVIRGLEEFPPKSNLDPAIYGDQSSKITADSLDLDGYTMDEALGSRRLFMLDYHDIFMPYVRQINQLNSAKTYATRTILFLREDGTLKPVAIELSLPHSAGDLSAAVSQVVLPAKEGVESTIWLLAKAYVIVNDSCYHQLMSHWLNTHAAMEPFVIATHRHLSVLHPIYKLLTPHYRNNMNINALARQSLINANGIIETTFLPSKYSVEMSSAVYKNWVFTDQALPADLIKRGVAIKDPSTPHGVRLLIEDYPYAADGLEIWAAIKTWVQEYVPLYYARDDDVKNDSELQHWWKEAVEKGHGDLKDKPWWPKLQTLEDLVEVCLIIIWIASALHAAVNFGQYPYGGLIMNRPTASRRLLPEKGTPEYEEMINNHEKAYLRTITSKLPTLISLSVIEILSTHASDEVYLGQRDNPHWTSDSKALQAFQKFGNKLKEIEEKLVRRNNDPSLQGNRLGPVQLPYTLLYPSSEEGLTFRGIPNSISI
Protocol: The study of anti-inflammatory activity of the extract of Example 1 was assessed on the basis of lipoxygenase inhibition using a spectrophotometric method in 96-well plates. For this purpose, 100 µL of various concentrations of extract solution in potassium phosphate buffer (pH = 8.5), 50 µL of soybean lipoxygenase solution (LOX; 167 U/mL; Sigma-Aldrich Chemie GmbH, Steinheim, Germany) in potassium phosphate buffer (pH = 8.5), and finally 50 µL of linoleic acid solution (LA; 134 µM; Sigma-Aldrich Chemie GmbH, Steinheim, Germany) were added to the wells. Changes in absorbance at 234 nm were then measured for a period of 25 minutes with intervals of 30 seconds. Indomethacin (Sigma-Aldrich) was used as a positive control. The activity of the extract was calculated as the percentage of LOX enzyme activity (% of activity) in relation to the maximal activity (negative control - solution without studied extract) after subtracting the absorbance of the extract at 234 nm in all cases. Absorbance values at the 10th minute of the reaction were used for the calculations.

Structure (SMILES): O=c1cc(CO)occ1O [kojic acid]
- Tyrosinase inhibition [%] (fungal tyrosinase): 61.17%

Structure (SMILES): O=C(O[C@@H]1Cc2c(O)cc(O)cc2O[C@@H]1c1cc(O)c(O)c(O)c1)c1cc(O)c(O)c(O)c1 [EGCG, Epigallocatechin gallate]
- Collagenase inhibition (%) [1]: 84.45%
- inhibition at 100 µg/mL [2]: 92.2%

Structure (SMILES): COc1ccc2c(c1)c(CC(=O)O)c(C)n2C(=O)c1ccc(Cl)cc1 [Indomethacin]
- Inhibition of LOX activity [%] (soybean lipoxygenase): 99.80%
